Test results published in US20100298141A1, “SUBSTITUTED PYRIDINE N-OXIDE HERBICIDES” (E. I. DU PONT DE NEMOURS AND COMPANY, priority 2007, published 2010).

Columns and labels:
winter barley = assay: Test C postemergence test; format: in vivo, Hordeum vulgare; settings: for Plant response rating, Barley: scale 0 to 100, 0 no effect, 100 complete control
Experimental: (§1) At the same time, plants selected from these crop and weed species and also winter barley (Hordeum vulgare), canarygrass (Phalaris minor), and chickweed (Stellaria media) were treated with postemergence applications of some of the test chemicals formulated in the same manner. Plants ranged in height from 2 to 18 cm (1- to 4-leaf stage) for postemergence treatments. […] At time of treatment, test pots were flooded to 3 cm above the soil surface, treated by application of test compounds directly to the paddy water, and then maintained at that water depth for the duration of the test. Treated plants and controls were maintained in a greenhouse for 13 to 15 days, after which time all species were compared to controls and visually evaluated. […] A dash (-) response means no test result.

canarygrass = assay: Test C postemergence test; format: in vivo, Phalaris minor; settings: for Plant response rating, Canarygrass: scale 0 to 100, 0 no effect, 100 complete control
Experimental: as §1

chickweed = assay: Test C postemergence test; format: in vivo, Stellaria media; settings: for Plant response rating, Chickweed: scale 0 to 100, 0 no effect, 100 complete control
Experimental: as §1

common sowthistle = assay: Test F preemergence test; format: in vivo, Sonchus oleraceous; settings: scale 0 to 100
Excerpt: (§2) Seeds of plant species selected from bermudagrass (Cynodon dactylon), Surinam grass (Brachiaria decumbens), large crabgrass (Digitaria sanguinalis), green foxtail (Setaria viridis), goosegrass (Eleusine indica), johnsongrass (Sorghum halepense), kochia (Kochia scoparia), pitted morningglory (Ipomoea lacunosa), purple nutsedge (Cyperus rotundus), common ragweed (Ambrosia elation), mustard (Brassica nigra), guineagrass (Panicum maximum), […] (Paspalum dilatatum), barnyardgrass (Echinochloa crus-galli), southern sandbur (Cenchrus echinatus), common sowthistle (Sonchus oleraceous), prickly […] spinosa), Italian ryegrass (Lolium multiflorum), common purslane (Portulaca oleracea), broadleaf signalgrass (Brachiaria platyphylla), common groundsel (Senecio vulgaris), common chickweed (Stellaria media), Virginia dayflower (Commelina virginica), annual bluegrass (Poa annua), naked crabgrass (Digitaria nuda), […] cochinchinensis), quackgrass (Elytrigia repens), Canada horseweed (Conyza canadensis), field bindweed (Convolvulus arvensis), […] (Bidens bipinnata), common mallow (Malva sylvestris), Russian thistle (Salsola kali), and sugarcane (Saccharum officinarum) were planted and treated preemergence with test chemicals formulated in a non-phytotoxic solvent mixture which included a surfactant. At a different time, sugarcane was treated with postemergence applications of some of the test chemicals formulated in the same manner. Plants were approximately 3- to 4-leaf stage for the postemergence treatments. Treated plants and controls were maintained in a greenhouse for 14 to 21 days, after which time all species were compared to controls and visually evaluated. […] A dash (-) response means no test result.

windgrass [1] = assay: Test C pre-/postemergence test; format: in vivo, Apera spica-venti; settings: Postemergence; for Plant response rating, Windgrass: scale 0 to 100, 0 no effect, 100 complete control
Excerpt: Seeds of plant species selected from blackgrass (Alopecurus myosuroides), downy brome (Bromus tectorum), green foxtail (Setaria viridis), Italian ryegrass (Lolium multiflorum), wheat (Triticum aestivum), wild oat (Avena fatua), catchweed bedstraw (Galium aparine), Russian thistle (Salsola kali), […] (Cynodon dactylon), Surinam grass (Brachiaria decumbens), cocklebur (Xanthium strumarium), corn (Zea mays), crabgrass (Digitaria sanguinalis), woolly cupgrass (Eriochloa villosa), giant foxtail (Setaria faberii), Goosegrass (Eleusin indica), johnsongrass (Sorghum halepense), kochia (Kochia scoparia), lambsquarters (Chenopodium album), morningglory (Ipomoea coccinea), eastern black nightshade (Solanum ptycanthum), yellow nutsedge (Cyperus esculentus), pigweed (Amaranthus retroflexus), common ragweed (Ambrosia elation), soybean (Glycine max), common (oilseed) sunflower (Helianthus annuus), and velvetleaf (Abutilon theophrasti) were planted and treated preemergence with test chemicals formulated in a non-phytotoxic solvent mixture which included a surfactant. At the same time, plants selected from these crop and weed species and also winter barley (Hordeum vulgare), canarygrass (Phalaris minor), and chickweed (Stellaria media) were treated with postemergence applications of some of the test chemicals formulated in the same manner. Plants ranged in height from 2 to 18 cm (1- to 4-leaf stage) for postemergence treatments. […] At time of treatment, test pots were flooded to 3 cm above the soil surface, treated by application of test compounds directly to the paddy water, and then maintained at that water depth for the duration of the test. […] A dash (-) response means no test result.

Russian thistle = assay: Test F preemergence test; format: in vivo, Salsola kali; settings: scale 0 to 100
Excerpt: as §2

rice = assay: Test B flooded paddy test; format: in vivo, Oryza sativa; settings: Flood, 250 g ai/ha, 13 to 15 days; scale 0 to 100, 0 no effect, 100 complete control
Excerpt: At time of treatment, test pots were flooded to 3 cm above the soil surface, treated by application of test compounds directly to the paddy water, and then maintained at that water depth for the duration of the test. Treated plants and controls were maintained in a greenhouse for 13 to 15 days, after which time all species were compared to controls and visually evaluated. […] A dash (-) response means no test result.

spanishneedles = assay: Test F preemergence test; format: in vivo, Bidens bipinnata; settings: scale 0 to 100
Excerpt: as §2

yellow nutsedge = assay: Test G preemergence test; format: in vivo, Cyperus esculentus; settings: scale 0 to 100
field sandbur = assay: Test G preemergence test; format: in vivo, Cenchrus incertus; settings: scale 0 to 100
giant foxtail = assay: Test G preemergence test; format: in vivo, Setaria faberii; settings: scale 0 to 100
windgrass [2] = assay: Test D preemergence test; format: in vivo, Apera spica-venti; settings: scale 0 to 100
Excerpt: Seeds of plant species selected from annual bluegrass (Poa annua), blackgrass (Alopecurus myosuroides), downy bromegrass (Bromus tectorum), field violet (Viola arvensis), green foxtail (Setaria viridis), Italian ryegrass (Lolium multiflorum), littleseed canarygrass (Phalaris minor), spring wheat (Triticum aestivum), wild oat (Avena fatua), […]), winter barley (Hordeum vulgare), and winter wheat (Triticum aestivum) were planted and treated preemergence with test chemicals formulated in a non-phytotoxic solvent mixture which included a surfactant. […] A dash (-) response means no test result.

## CC(c1c(C(F)(F)F)nn(C)c1OC(F)F)S(=O)(=O)c1cccc[n+]1[O-] (centres unmarked) [Compound 5]
Winter barley; 31 g ai/ha
  Plant response rating (0 to 100), Barley: 0
Winter barley; 62 g ai/ha
  Plant response rating, Barley: 0
Winter barley; 125 g ai/ha
  Plant response rating, Barley: 20
Winter barley; 250 g ai/ha
  Plant response rating, Barley: 20
canarygrass; 31 g ai/ha
  Plant response rating (0 to 100), Canarygrass: 0
canarygrass; 62 g ai/ha
  Plant response rating, Canarygrass: 0
canarygrass; 125 g ai/ha
  Plant response rating, Canarygrass: 0
canarygrass; 250 g ai/ha
  Plant response rating, Canarygrass: 0
chickweed; 31 g ai/ha
  Plant response rating (0 to 100), Chickweed: 0
chickweed; 62 g ai/ha
  Plant response rating, Chickweed: 0
chickweed; 125 g ai/ha
  Plant response rating, Chickweed: 10
chickweed; 250 g ai/ha
  Plant response rating, Chickweed: 85
Common sowthistle; 8 g ai/ha, preemergence
  Plant response rating, Sowthistle: 100
Common sowthistle; 16 g ai/ha, preemergence
  Plant response rating, Sowthistle: 100
Common sowthistle; 62 g ai/ha, Preemergence
  Sowthistle plant response rating: 100
Common sowthistle; Preemergence, 31 g ai/ha
  Plant response rating, Sowthistle: 100
Windgrass [1]; 31 g ai/ha
  Plant response rating (0 to 100), Windgrass: 30
Windgrass [1]; 62 g ai/ha
  Plant response rating (0 to 100), Windgrass: 60
Windgrass [1]; 125 g ai/ha
  Plant response rating, Windgrass: 70
Windgrass [1]; 250 g ai/ha
  Plant response rating, Windgrass: 75
Russian thistle; 8 g ai/ha, preemergence
  Plant response rating, Russian Thistle: 0
Russian thistle; 62 g ai/ha, Preemergence
  Russian Thistle plant response rating: 60
Russian thistle; Preemergence, 16 g ai/ha
  Plant response rating, Russian Thistle: 0
Russian thistle; Preemergence, 31 g ai/ha
  Plant response rating, Russian Thistle: 0
rice
  Plant response rating, Rice, Transplanted: 70

## Cc1cc[n+]([O-])c(S(=O)(=O)C(Cl)c2c(C(F)(F)F)nn(C)c2OCC(F)(F)F)c1 (racemic) [Compound 37]
spanishneedles; 16 g ai/ha, preemergence
  Plant response rating, Spanishneedles: 0
spanishneedles; 125 g ai/ha, preemergence
  Spanishneedles plant response rating: 0
spanishneedles; Preemergence, 62 g ai/ha
  Plant response rating, Spanishneedles: 0
spanishneedles; Preemergence, 31 g ai/ha
  Plant response rating, Spanishneedles: 0
Russian thistle; 16 g ai/ha, preemergence
  Plant response rating, Russian Thistle: 0
Russian thistle; Preemergence, 31 g ai/ha
  Plant response rating, Russian Thistle: 0

## Cn1nc(C(F)(F)F)c(C(Cl)S(=O)(=O)c2cccc[n+]2[O-])c1Cl (centres unmarked) [Compound 12]
Yellow nutsedge; 31 g ai/ha
  Plant response rating, Nutsedge, Yellow: 0
Yellow nutsedge; 62 g ai/ha
  Plant response rating, Nutsedge, Yellow: 0
Yellow nutsedge; 125 g ai/ha
  Plant response rating, Nutsedge, Yellow: 0
Yellow nutsedge; 250 g ai/ha
  Plant response rating, Nutsedge, Yellow: 20
Field sandbur; 31 g ai/ha
  Plant response rating, Sandbur: 85
Field sandbur; 62 g ai/ha
  Plant response rating, Sandbur: 85
Field sandbur; 125 g ai/ha
  Plant response rating, Sandbur: 95
Field sandbur; 250 g ai/ha
  Plant response rating, Sandbur: 100
Giant foxtail; 31 g ai/ha
  Plant response rating, Foxtail, Giant: 45
Giant foxtail; 62 g ai/ha
  Plant response rating, Foxtail, Giant: 75
Giant foxtail; 125 g ai/ha
  Plant response rating, Foxtail, Giant: 100
Giant foxtail; 250 g ai/ha
  Plant response rating, Foxtail, Giant: 100
Windgrass [2]; 31 g ai/ha
  Plant response rating, Windgrass: 100
Windgrass [2]; 62 g ai/ha
  Plant response rating, Windgrass: 100
Windgrass [2]; 125 g ai/ha
  Plant response rating, Windgrass: 100
Windgrass [2]; 250 g ai/ha
  Plant response rating, Windgrass: 100
